In BindingDB's records for doi:10.1016/j.bmcl.2015.06.046 (Cubist Pharmaceuticals, 2015) one finds IC50 data, which are given here for one compound.

The nature of the experiment: Antagonist activity at CCR9 receptor (unknown origin) by serum chemotaxis assay.

`CC(C)(C)c1ccc(S(=O)(=O)Nc2ccc(Cl)cc2-c2nccnc2NCCO)cc1` came in with an IC50 of 170 nM.

As usually defined, the IC50 is the point on the concentration scale where inhibition reaches its midpoint.
